Assay results taken from patent publication US20020173505A1, “Medicament” (priority 1999, published 2002).

Key:
[1] = system: human in vitro preparations (airway smooth muscle); test: spontaneous tone in human in vitro airway preparations; details: for nature of the relaxation of spontaneous tone (transient or persistent): human in vitro preparations
Procedure: (§1) The examinations of the spontaneous tone were performed in accordance with the methods disclosed in the thesis “Regulation of spontaneous tone in guinea pig trachea” by S.Skogvall, Department of Physiological Sci- ences, Lund University, 1999, which is incorporated herein by reference. As evidenced by these examinations, the airways normally display a highly regular type of oscillating tone if exposed to physiological conditions, and the oscillating tone can be reversibly affected by administration of various substances- When the epithelium is removed, the preparations instead display a strong, smooth type of tone.
Similar experiments have also been performed on human in vitro preparations, from patients undergoing lobecotomy or pulmectomy due to lung cancer.
Human airways are generally considered to display only a weak contraction when exposed to S-HT. Nevertheless, examinations on spontaneous tone on human in vitro preparations have shown that 5-HT indeed has a contractile component also in this tissue. However, this contraction takes a longer time to develop than in guinea pig and the contractile effect is seen as a termination of the relaxation, rather than an increase of tone from the baseline. In guinea pig trachea, the contraction reaches a maximum after approximately 10 min, and this is followed by a considerable reduction of tone. However, human preparations instead induce a maximum relaxing effect after 5-10 min, which disappears gradually during the following 30-45 min (see FIG. 1).

[2] = system: denuded airway smooth muscle preparations from the guinea-pig; test: spontaneous tone of denuded guinea-pig airway smooth muscle preparations
Source text: The subject-matter of the present invention was inter alia deduced from animal experiments, where a specific behavior of the airway smooth muscle called “spontaneous tone” was examined. The spontaneous tone, which involves a spontaneous continuous contraction in the airway smooth muscle, was studied due to a suspicion that detective regulation of the spontaneous tone could be an important cause of the bronchoconstriction observed in asthmatic patients.
as §1
A contractile effect of serotonin on airway smooth muscle has been reported in e.g. SkQgvall, S., Korsgren, M-, Grampp, W., J. Appl. Phys., 86:789-798, 1999. […] The spontaneous tone returned to approximately its normal level when the preparations were again exposed to control conditions.

Structure (SMILES) | nature of the relaxation of spontaneous tone (transient or persistent) ([1]; FIG. 1) | effect on spontaneous tone ([1]; 1 μM, tissue from patients undergoing lobectomy or pulmectomy) | time over which the relaxing effect gradually disappears after the maximum ([1]; human preparations, FIG. 1) [min] | time to maximum relaxing effect ([1]; human preparations, FIG. 1) [min] | average force level of spontaneous tone ([2]; 1 μM added, denuded preparations with strong, smooth spontaneous tone) | spontaneous tone, level relative to force in control (drug-free) conditions ([2]; 10 μM added, denuded preparations) | time to maximum contraction ([2]; guinea pig trachea)
NCCc1c[nH]c2ccc(C(N)=O)cc12 [5-carboxiamidotryptamine, 5-carboxamidotryptamine] | persistent and not transient |  |  |  |  |  | 
COc1cc(N)c(Cl)cc1C(=O)NC[C@@H]1CCN2CCC[C@@H]12 [SC 53116, 4-amino-5-chloro-N-[[lS, 7aS)-hexahydro-1H-pyrrolizin-l-yl]methyll-2-methoxy-benzamide] | persistent and not transient |  |  |  |  |  | 
NCCc1c[nH]c2ccc(O)cc12 [serotonin, 3-(P-aminoethyl)-5-hydroxyindole] | transient relaxation | significant relaxation | 30 to 45 | 5 to 10 | increased significantly | about half | approximately 10 min
